US10065990B2, “Cyclic peptide compound, and preparation method, pharmaceutical composition and use thereof” (HANGZHOU GUANYU BIO-MEDICAL CO., LTD, priority 2013, dated 2018)
Read-outs that look alike come from different tables or passages of the source.

Tests used:
[1] = system: KBM-5 (human chronic myelogenous leukemia); test: MTT cancer cell growth inhibition; assay type: cell-based; conditions: MTT, 72 hours incubation, KBM-5 cells, read-out: GI50 KBM-5
In short: (§1)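 Cells grown in DMEM or RPMI 1640 with 10% FBS were seeded at 1500/well and left overnight at 37° C., 5% CO2. Compounds at final 10^−5 to 10^−10 M were added in triplicate for 72 h. MTT was then added for 4 h, formazan dissolved in DMSO, and absorbance read at 570 nm to derive GI50.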

[2] = system: DU145 (human prostate cancer cells); test: MTT cancer cell growth inhibition; assay type: cell-based; conditions: MTT, 72 hours incubation, read-out: GI50 Du1
In short: as §1

[3] = system: PANC-1 (Pac-1, human pancreatic cancer cells); test: MTT cancer cell growth inhibition; assay type: cell-based; conditions: MTT, 72 hours incubation, read-out: GI50 PAN
In short: as §1

[4] = system: H1975 (non-small cell lung adenocarcinoma); test: MTT cancer cell growth inhibition; assay type: cell-based; conditions: MTT, 72 hours incubation, H1975 cells, read-out: GI50 H1975
In short: as §1

[5] = system: SGC-7901 (human gastric cancer cells); test: MTT cancer cell growth inhibition; assay type: cell-based; conditions: MTT, 72 hours incubation, SGC-7901 cells, read-out: GI50 SGC-7901
In short: as §1

[6] = system: MDA-MB-231 (breast cancer cells); test: MTT cancer cell growth inhibition; assay type: cell-based
In short: as §1

[7] = system: Huh-7 (human hepatoma cells); test: MTT cancer cell growth inhibition; assay type: cell-based; conditions: MTT, 72 hours incubation, Huh-7 cells, read-out: GI50 Huh-7
In short: as §1

[8] = system: KBM5-T315I (human chronic myelogenous leukemia); test: MTT cancer cell growth inhibition; assay type: cell-based; conditions: MTT, 72 hours incubation, KBM5-T315I cells, read-out: GI50 KBM5-T315I
In short: as §1

[9] = system: HT1080 (human fibrosarcoma cells); test: MTT cancer cell growth inhibition; assay type: cell-based; conditions: MTT, 72 hours incubation, read-out: GI50 HT1
In short: as §1

[10] = system: Bel-7402 (human hepatoma cells); test: MTT cancer cell growth inhibition; assay type: cell-based; conditions: MTT, 72 hours incubation, Bel-7402 cells, read-out: GI50 Bel-7402
In short: as §1

[11] = system: A549 (human lung cancer cells); test: MTT cancer cell growth inhibition; assay type: cell-based; conditions: MTT, 72 hours incubation, read-out: GI50 A54
In short: as §1

[12] = system: HCC827 (human non-small cell lung cancer cells); test: MTT cancer cell growth inhibition; assay type: cell-based; conditions: MTT, 72 hours incubation, HCC827 cells, read-out: GI50 HCC827
In short: as §1

[13] = system: N-87 (human gastric cancer cells); test: MTT cancer cell growth inhibition; assay type: cell-based; conditions: MTT, 72 hours incubation, N-87 cells, read-out: GI50 N-87
In short: as §1

[14] = system: K562 (human leukemia cells); test: MTT cancer cell growth inhibition; assay type: cell-based; conditions: MTT, 72 hours incubation, K562 cells, read-out: GI50 K562
In short: as §1

[15] = system: Hela (human cervical cancer cells); test: MTT cancer cell growth inhibition; assay type: cell-based; conditions: MTT, 72 hours incubation, read-out: GI50 Hela
In short: as §1

[16] = system: MOLT-4 (human acute lymphoblastic leukemia cells); test: MTT cancer cell growth inhibition; assay type: cell-based; conditions: MTT, 72 hours incubation, read-out: GI50 Mol
In short: as §1

[17] = system: U937 (human leukemia cells); test: MTT cancer cell growth inhibition; assay type: cell-based; conditions: MTT, 72 hours incubation, read-out: GI50 U93
In short: as §1

[18] = system: lncap (prostate cancer cells); test: MTT cancer cell growth inhibition; assay type: cell-based; conditions: MTT, 72 hours incubation, read-out: GI50 lnca
In short: as §1

[19] = system: BGC-823 (human gastric cancer cells); test: MTT cancer cell growth inhibition; assay type: cell-based; conditions: MTT, 72 hours incubation, read-out: GI50 BG
In short: as §1

[20] = system: MCF-7 (human breast cancer cells); test: MTT cancer cell growth inhibition; assay type: cell-based; conditions: 72 hours incubation, read-out: GI50 MCF
In short: as §1

[21] = biological target: T1, HDAC7 (Homo sapiens, UniProt Q8WUI4); test: HDAC biochemical activity measurement (fluorescent substrate deacetylation);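 further: fluorogenic deacetylation assay using acetyl-lysine substrate at 20 µM, enzyme and compound incubated 30 min at 37 °C, then developer added, fluorescence read at 360/460 nm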; conditions: HDAC7; 37° C. 30 minutes
T1 sequence (Q8WUI4 1-952): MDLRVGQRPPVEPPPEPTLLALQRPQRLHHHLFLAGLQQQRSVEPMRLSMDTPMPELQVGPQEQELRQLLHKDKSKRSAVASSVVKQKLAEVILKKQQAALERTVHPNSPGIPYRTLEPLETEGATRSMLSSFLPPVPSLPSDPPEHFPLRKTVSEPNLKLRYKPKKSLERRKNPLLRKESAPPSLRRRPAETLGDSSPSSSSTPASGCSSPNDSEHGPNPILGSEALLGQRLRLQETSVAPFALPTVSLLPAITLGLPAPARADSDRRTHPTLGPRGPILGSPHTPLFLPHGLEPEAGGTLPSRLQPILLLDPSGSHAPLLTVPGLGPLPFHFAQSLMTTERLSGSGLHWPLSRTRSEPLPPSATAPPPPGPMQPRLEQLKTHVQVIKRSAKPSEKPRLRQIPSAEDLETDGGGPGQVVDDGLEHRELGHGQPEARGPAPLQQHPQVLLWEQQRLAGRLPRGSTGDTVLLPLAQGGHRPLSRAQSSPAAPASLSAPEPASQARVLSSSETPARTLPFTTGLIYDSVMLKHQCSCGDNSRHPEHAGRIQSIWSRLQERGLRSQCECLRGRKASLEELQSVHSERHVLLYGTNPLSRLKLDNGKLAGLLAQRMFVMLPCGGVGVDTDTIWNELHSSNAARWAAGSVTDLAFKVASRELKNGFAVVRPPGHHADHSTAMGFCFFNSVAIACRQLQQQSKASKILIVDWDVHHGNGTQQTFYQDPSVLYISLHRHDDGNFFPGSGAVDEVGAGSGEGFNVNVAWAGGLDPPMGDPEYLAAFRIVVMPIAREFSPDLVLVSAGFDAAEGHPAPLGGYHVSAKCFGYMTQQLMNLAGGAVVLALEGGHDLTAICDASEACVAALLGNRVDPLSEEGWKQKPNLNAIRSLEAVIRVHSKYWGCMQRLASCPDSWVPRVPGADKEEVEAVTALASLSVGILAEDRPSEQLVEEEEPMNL

[22] = Homo sapiens, MDA-MB-231, 72 h, read-out: GI50 MDA-MB-231, MTT, 72 hours incubation, MDA-MB-231 cells

Row | GI50 ([1]; Homo sapiens, KBM5, 72 h) | GI50 ([2]; Homo sapiens, DU-145, 72 h) | GI50 ([3]; Homo sapiens, PANC-1, 72 h) | GI50 ([4]; Homo sapiens, NCI-H1975, 72 h) | GI50 ([5]; Homo sapiens, SGC-7901, 72 h) | GI50 [6, 22] | GI50 ([7]; Homo sapiens, Huh-7, 72 h) | GI50 ([8]; Homo sapiens, 72 h) | GI50 ([9]; Homo sapiens, HT-1080, 72 h) | GI50 ([10]; Homo sapiens, Bel-7402, 72 h) | GI50 ([11]; Homo sapiens, A549, 72 h) | GI50 ([12]; Homo sapiens, HCC827, 72 h) | GI50 ([13]; Homo sapiens, 72 h) | GI50 ([14]; Homo sapiens, K562, 72 h) | GI50 ([15]; Homo sapiens, HeLa, 72 h) | GI50 ([16]; Homo sapiens, MOLT-4, 72 h) | GI50 ([17]; Homo sapiens, U-937, 72 h) | GI50 ([18]; Homo sapiens, LNCaP, 72 h) | GI50 ([19]; Homo sapiens, BGC-823, 72 h) | IC50 HDAC7 [21] | SMILES | also measured
1 | 46 nM | 30 nM | 70 nM | 28 nM | 33 nM | 75 nM | 45 nM | 23 nM | 70 nM | 26 nM | 210 nM | 42 nM | 23 nM | 38 nM | 50 nM | 30 nM | 60 nM | 110 nM | 190 nM | no activity | C/C=C1\NC(=O)c2cc(F)cc(n2)CNC(=O)C[C@@H](/C=C/CCS)OC(=O)[C@H](CCCCNC(=O)OCC2c3ccccc3-c3ccccc32)NC1=O [Compound 121] | GI50 ([20]; Homo sapiens, MCF7, 72 h): 20 nM
2 | – | – | – | – | – | – | – | – | – | – | – | – | – | – | – | – | – | – | – | no activity | C/C=C1\NC(=O)c2ccc(SC)c(n2)CNC(=O)C[C@@H](/C=C/CCSC(C)=O)OC(=O)[C@H](C(C)C)NC1=O [Compound 209] | GI50 [1]: 46 nM; GI50 ([2]; DU145 cells): 70 nM; GI50 ([3]; PANC-1 cells): 20 nM; GI50 [4]: 17 nM; GI50 [5]: 41 nM; GI50 ([6]; read-out: GI50 MDA-MB-231, MTT, 72 hours incubation, MDA-MB-231 cells): 35 nM; GI50 [7]: 23 nM; GI50 [8]: 31 nM; GI50 ([9]; HT1080 cells): 30 nM; GI50 [10]: 13 nM; GI50 ([11]; A549 cells): 20 nM; GI50 [12]: 85 nM; GI50 [13]: 51 nM; GI50 [14]: 39 nM; GI50 ([15]; Hela cells): 90 nM; GI50 ([16]; MOLT-4 cells): 70 nM; GI50 ([17]; U937 cells): 30 nM; GI50 ([18]; lncap cells): 20 nM; GI50 ([19]; BGC-823 cells): 40 nM; GI50 ([20]; MCF-7 cells): 20 nM
3 | 18 nM | 20 nM | 40 nM | 93 nM | 21 nM | 46 nM | 52 nM | 36 nM | 50 nM | 28 nM | 60 nM | 21 nM | 43 nM | 16 nM | 40 nM | 30 nM | 20 nM | 30 nM | 50 nM | no activity | C/C=C1\NC(=O)c2nc(ccc2F)CNC(=O)C[C@@H](/C=C/CCS)OC(=O)[C@H](CCCCN)NC1=O [Compound 116] | GI50 ([20]; Homo sapiens, MCF7, 72 h): 60 nM
4 | 61 nM | 30 nM | 80 nM | 39 nM | 28 nM | 37 nM | 37 nM | 34 nM | 80 nM | 82 nM | 20 nM | 82 nM | 37 nM | 38 nM | 60 nM | 30 nM | 30 nM | 30 nM | 30 nM | no activity | C=C1NC(=O)c2ccc(F)c(n2)CNC(=O)C[C@@H](/C=C/CCSC(C)=O)OC(=O)[C@H](C(C)C)NC1=O [Compound 86] | GI50 ([20]; Homo sapiens, MCF7, 72 h): 30 nM
5 | 72 nM | 20 nM | 40 nM | 73 nM | 37 nM | 57 nM | 48 nM | 54 nM | 40 nM | 61 nM | 40 nM | 65 nM | 27 nM | 19 nM | 60 nM | 30 nM | 20 nM | 30 nM | 20 nM | no activity | C/C=C1\NC(=O)c2nc(F)cc(n2)CNC(=O)C[C@@H](/C=C/CCSC(C)=O)OC(=O)[C@H](C(C)C)NC1=O [Compound 96] | GI50 ([20]; Homo sapiens, MCF7, 72 h): 20 nM
